Here are results for nine compounds from ChEMBL document CHEMBL3217668, “3-Formylchromone based topoisomerase II inhibitors: discovery of potent leads” (Medchemcomm, 2013).

Calls of active or inactive are those of the source. The rule behind the calls is not given here.

In experiment [1] the target is T1, DNA topoisomerase 2-alpha (Homo sapiens, UniProt P11388). The experiment in a line: Inhibition of human topoisomerase-2alpha-mediated kDNA decatenation after 30 mins by agarose gel electrophoresis.
T1 sequence (P11388 whole entry): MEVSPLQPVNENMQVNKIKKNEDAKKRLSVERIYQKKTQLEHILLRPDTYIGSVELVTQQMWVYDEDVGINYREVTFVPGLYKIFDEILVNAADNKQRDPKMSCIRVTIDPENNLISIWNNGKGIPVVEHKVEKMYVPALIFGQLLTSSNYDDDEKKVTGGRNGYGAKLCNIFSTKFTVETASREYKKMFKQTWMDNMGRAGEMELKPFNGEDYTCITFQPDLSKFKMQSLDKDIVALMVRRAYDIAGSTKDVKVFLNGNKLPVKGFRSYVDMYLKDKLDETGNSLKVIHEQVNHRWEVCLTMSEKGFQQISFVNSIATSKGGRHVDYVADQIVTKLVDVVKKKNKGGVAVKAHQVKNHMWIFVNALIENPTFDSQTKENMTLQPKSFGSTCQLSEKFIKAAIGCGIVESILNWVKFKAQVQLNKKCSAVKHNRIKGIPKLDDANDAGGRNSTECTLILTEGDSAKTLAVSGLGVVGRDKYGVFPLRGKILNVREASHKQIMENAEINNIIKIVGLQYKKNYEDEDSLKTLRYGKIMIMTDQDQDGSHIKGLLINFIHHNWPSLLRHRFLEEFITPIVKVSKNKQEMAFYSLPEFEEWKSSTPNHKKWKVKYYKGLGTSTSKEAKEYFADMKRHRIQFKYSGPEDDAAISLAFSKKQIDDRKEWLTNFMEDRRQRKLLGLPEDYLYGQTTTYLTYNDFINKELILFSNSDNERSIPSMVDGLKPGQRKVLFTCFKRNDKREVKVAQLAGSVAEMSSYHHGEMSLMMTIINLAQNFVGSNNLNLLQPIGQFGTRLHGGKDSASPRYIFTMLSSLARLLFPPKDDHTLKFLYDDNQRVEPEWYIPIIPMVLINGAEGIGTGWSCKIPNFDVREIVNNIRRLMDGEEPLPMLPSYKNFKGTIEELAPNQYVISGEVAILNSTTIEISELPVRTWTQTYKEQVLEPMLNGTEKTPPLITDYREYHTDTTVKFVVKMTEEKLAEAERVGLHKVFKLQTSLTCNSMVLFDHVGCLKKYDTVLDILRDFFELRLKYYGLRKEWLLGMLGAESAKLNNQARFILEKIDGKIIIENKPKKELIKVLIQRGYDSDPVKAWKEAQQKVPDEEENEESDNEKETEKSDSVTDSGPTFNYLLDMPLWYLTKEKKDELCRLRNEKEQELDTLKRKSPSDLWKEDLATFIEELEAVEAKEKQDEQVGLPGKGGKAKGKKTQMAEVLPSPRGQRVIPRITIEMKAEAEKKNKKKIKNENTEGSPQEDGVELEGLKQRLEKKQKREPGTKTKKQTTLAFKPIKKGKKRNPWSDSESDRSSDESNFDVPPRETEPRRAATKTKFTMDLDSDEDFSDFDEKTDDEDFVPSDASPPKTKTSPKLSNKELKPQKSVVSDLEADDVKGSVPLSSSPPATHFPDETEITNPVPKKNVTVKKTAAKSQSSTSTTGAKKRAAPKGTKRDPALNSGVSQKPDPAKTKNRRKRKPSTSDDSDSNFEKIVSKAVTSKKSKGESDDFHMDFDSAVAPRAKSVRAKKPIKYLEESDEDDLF
The subject of a further experiment is PC-3. Kind of experiment: Cytotoxicity against human PC3 cells assessed as cell survival after 48 hrs by MTT assay. In kind it is functional. Conditions: PC-3, 48 h, read-out: LC50 (the source's name). A general note: Tetrazolium assays rely on reduction of a dye to a coloured formazan, in cell work by metabolically active cells.
Experiment [2] concerns Nucleic Acid. The experiment in a line: Binding affinity to Escherichia coli plasmid DNA assessed as intercalation at 100 uM after 20 mins by agarose gel electrophoresis. It is filed as nucleic-acid assay.
Experiment [3] addresses T1, DNA topoisomerase 2-alpha. Kind of experiment: Inhibition of human topoisomerase-2alpha-mediated supercoiled pRYG DNA relaxation at 100 uM after 30 mins by agarose gel electrophoresis.
Experiment [4] addresses T1, DNA topoisomerase 2-alpha. The experiment in a line: Inhibition of human topoisomerase-2alpha-mediated kDNA decatenation at 100 uM after 30 mins by agarose gel electrophoresis.
Experiment [5] has as its system Nucleic Acid. The experiment in a line: Binding affinity to Escherichia coli plasmid DNA assessed as intercalation at 1 ug/mL after 20 mins by agarose gel electrophoresis. In kind it is nucleic-acid assay.

As a reminder, the IC50 is the concentration that inhibits the measured activity by half. A higher IC50 goes with lower potency.

For the compound `CN(c1ccccc1)c1oc2ccccc2c(=O)c1C=O`, 67.9 µM corresponded to half-maximal inhibition in experiment [1] (IC50). In the experiment with PC-3, the CC50 was determined as 0.5 µM. The result with Nucleic Acid [2] was inactive. For the same compound, in experiment [3], the inhibition result is “Active”.

`O=Cc1coc2ccc(Cl)cc2c1=O`: in the experiment with PC-3, the CC50 was 5.7 µM. Moreover, the result in the experiment on Nucleic Acid [2] was inactive. In addition, the inhibition entry in experiment [3] and in experiment [4] was “Active” each time.

For the compound `O=Cc1c(Nc2ccccc2)oc2ccc(Cl)cc2c1=O`, in the experiment with PC-3, the CC50 came to 8.3 µM. Further, the result with Nucleic Acid [2] was inactive. In addition, the inhibition entry in experiment [3] and in experiment [4] was “Active” in each case.

Consider `CC[n+]1c(-c2ccccc2)c2cc(N)ccc2c2ccc(N)cc21`, for which the outcome with Nucleic Acid [5] was Active.

As to `O=Cc1c(Nc2ccccc2)oc2cc(Cl)ccc2c1=O`, in the experiment with PC-3, the CC50 is 2.5 µM. Besides, the outcome with Nucleic Acid [2] was inactive. Further, the inhibition entry in experiment [3] and in experiment [4] was “Active” each time.

For `CN(c1ccccc1)c1oc2ccc(Cl)cc2c(=O)c1C=O`, the CC50 with PC-3 amounted to 2.1 µM. In addition, the outcome with Nucleic Acid [2] was inactive. Also, the inhibition result in experiment [3] and in experiment [4] was “Active” in each case.

Consider `O=Cc1c(Nc2ccccc2)oc2ccc(F)cc2c1=O`, for which the CC50 with PC-3 was 8.6 µM. Moreover, in the experiment with Nucleic Acid [2], the result was inactive. The inhibition result in experiment [3] and in experiment [4] was “Active” each time.

Turning to `O=Cc1c(Nc2ccccc2)oc2ccccc2c1=O`, the CC50 in the experiment on PC-3 stood at 8.2 µM. The result in the experiment on Nucleic Acid [2] was inactive. Besides, the inhibition entry in experiment [3] and in experiment [4] was “Active” throughout.

For the compound `COc1cc([C@@H]2c3cc4c(cc3[C@@H](O[C@@H]3O[C@@H]5CO[C@@H](C)O[C@H]5[C@H](O)[C@H]3O)[C@H]3COC(=O)[C@H]23)OCO4)cc(OC)c1O` [ETOPOSIDE], the CC50 in the experiment with PC-3 was determined as 7.5 µM. In the experiment on Nucleic Acid [2], the result was inactive. The inhibition result in experiment [3] and in experiment [4] was “Active” throughout.
